{"source": "ChEMBL document CHEMBL4308885", "about": "“The development of myeloperoxidase inhibitors” (Bioorg Med Chem Lett, 2019)", "key": {"Myeloperoxidase [1]": {"target": "T1, Myeloperoxidase (Homo sapiens, UniProt P05164)", "T1 sequence (P05164 whole entry)": "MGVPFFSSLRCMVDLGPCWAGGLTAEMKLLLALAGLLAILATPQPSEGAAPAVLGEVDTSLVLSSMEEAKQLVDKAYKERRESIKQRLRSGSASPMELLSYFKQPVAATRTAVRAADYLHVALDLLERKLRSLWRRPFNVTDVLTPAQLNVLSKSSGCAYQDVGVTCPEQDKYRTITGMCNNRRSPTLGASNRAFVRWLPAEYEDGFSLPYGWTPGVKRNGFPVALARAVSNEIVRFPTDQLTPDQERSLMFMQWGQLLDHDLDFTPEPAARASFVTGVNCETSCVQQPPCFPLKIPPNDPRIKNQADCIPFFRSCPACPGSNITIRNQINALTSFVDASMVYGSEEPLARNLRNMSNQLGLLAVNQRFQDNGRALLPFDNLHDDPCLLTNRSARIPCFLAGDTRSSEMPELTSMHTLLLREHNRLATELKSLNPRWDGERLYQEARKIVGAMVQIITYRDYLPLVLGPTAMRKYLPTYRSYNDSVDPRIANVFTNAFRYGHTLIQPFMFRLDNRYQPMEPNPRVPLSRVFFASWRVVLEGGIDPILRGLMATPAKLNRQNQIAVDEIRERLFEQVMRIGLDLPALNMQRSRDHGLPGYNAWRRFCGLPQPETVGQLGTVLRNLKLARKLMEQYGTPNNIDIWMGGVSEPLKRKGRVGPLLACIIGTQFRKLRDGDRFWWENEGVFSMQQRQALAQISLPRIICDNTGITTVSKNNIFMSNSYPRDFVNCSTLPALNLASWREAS", "experiment": "Inhibition of MPO in human neutrophils using H2O2 as substrate measured after 5 mins"}, "Myeloperoxidase [2]": {"target": "T1, Myeloperoxidase", "experiment": "Inhibition of MPO (unknown origin)"}, "[3]": {"target": "T2, Myeloperoxidase (Homo sapiens) (UniProt P05164)", "T2 sequence (whole entry)": "T1 sequence (P05164 whole entry)", "experiment": "Inhibition of MPO in human neutrophils assessed as reduction in PMA-stimulated HOCl production at 1 uM relative to control"}, "[4]": {"target": "T2, Myeloperoxidase (Homo sapiens)", "experiment": "Inhibition of MPO in human neutrophils at 10'4 M using H2O2 as substrate measured for 30 secs in presence of o-dianisidine hydrochloride by spectrophotometric method relative to control"}, "Myeloperoxidase [5]": {"target": "T1, Myeloperoxidase", "experiment": "Inhibition of MPO (unknown origin) using H2O2 as substrate"}}}
{"smiles": "NNC(=O)c1ccc(O)cc1", "values": [{"measurement": "IC50", "setting": "Myeloperoxidase [1]", "value": 2000, "unit": "nM"}]}
{"smiles": "CC(C)OCCn1c(=S)[nH]c(=O)c2[nH]ccc21", "values": [{"measurement": "IC50", "setting": "Myeloperoxidase [2]", "value": 630, "unit": "nM"}]}
{"smiles": "O=c1[nH]c(=S)n(C[C@H]2CCCO2)c2nc[nH]c12", "values": [{"measurement": "inhibition", "setting": "[3]", "value": 90, "unit": "%"}]}
{"smiles": "O=c1c(O)c(-c2ccc(O)c(O)c2)oc2cc(O)cc(O)c12", "values": [{"measurement": "inhibition", "setting": "[4]", "value": 100, "unit": "%"}]}
{"smiles": "CC(=O)Oc1ccccc1C(=O)O", "note": "[ASPIRIN]", "values": [{"measurement": "IC50", "setting": "Myeloperoxidase [2]", "value": 200000, "unit": "nM"}]}
{"smiles": "Nc1ccc(S(=O)(=O)c2ccc(N)cc2)cc1", "note": "[DAPSONE]", "values": [{"measurement": "IC50", "setting": "Myeloperoxidase [2]", "value": 420, "unit": "nM"}]}
{"smiles": "COc1ccc2[nH]cc(CCNC(C)=O)c2c1", "note": "[MELATONIN]", "values": [{"measurement": "IC50", "setting": "Myeloperoxidase [5]", "value": 3000, "unit": "nM"}]}
{"smiles": "N[C@@H](Cc1c[nH]c2ccccc12)C(=O)O", "note": "[TRYPTOPHAN]", "values": [{"measurement": "IC50", "setting": "Myeloperoxidase [5]", "value": 2250, "unit": "nM"}]}
